Reference: US20230181498A1, “NEW USE OF N,N-BIS-2-MERCAPTOETHYL ISOPHTHALAMIDE” (EMERAMED LIMITED, priority 2020, published 2023)

What was measured:
Format in all cases: in vivo, human
[1] = tested on: common cold-like and/or flu-like illnesses; test: Treatment of Patient I (case report, daily NBMI); conditions: man, up to 300 mg/day NBMI almost daily for approximately 14 years; self-reported
Experimental: A person residing in the USA reported taking doses of up to 300 mg/day NBMI almost daily since 2006.
Before taking NBMI, the person regularly became sick with such illnesses due to their work as a university professor and being an avid outdoorsman.

[2] = tested on: common cold-like and/or flu-like symptoms; test: Treatment of Patient II (case report, daily NBMI); conditions: self-reported
Source text: A person residing in the USA, the spouse of Patient I, reported that they were often inflicted with common cold-like and/or flu-like symptoms due to their profession as a registered nurse.

viral infections [3] = test: Treatment of Patient with ME/CFS I (case report)
Experimental: A person residing in Sweden and diagnosed with myalgic encephalomyelitis/chronic fatigue syndrome (ME/CFS), reported that they started to use NBMI extensively in 2010 starting with 600 mg/day for 1.5 months, then 400 mg/day for 1.5 months and then 300 mg/day for three months.
Due to ME/CFS, the person was often inflicted with viral infections.

viral infections [4] = test: Treatment of Patient with ME/CFS II (case report); conditions: person with ME/CFS and long history of viral infections, 300 mg/day NBMI from 2010; self-reported
Source text: The person was often sick and had, therefore, a poor quality of life.

[5] = person with ME/CFS, 2010, 600 then 400 then 300 mg/day, self-reported

SMILES: O=C(NCCS)c1cccc(C(=O)NCCS)c1 [NBMI, N,N-bis-2-mercaptoethyl isophthalamide]
- occurrence of common cold-like and/or flu-like illnesses [1]: has not become unwell with common cold-like and/or flu-like illnesses
- common cold-like and/or flu-like symptoms, recent years ([2]; person, NBMI daily, over the past 5 years): has not experienced any such symptoms
- flu-like symptoms after starting NBMI ([2]; registered nurse, NBMI daily since 2010): great decrease in having flu-like symptoms
- frequency and severity of infections on restarting NBMI (viral infections [3]; person with ME/CFS, 300 mg/day again from late 2011, self-reported): got fewer and less severe
- frequency of viral infections (viral infections [3]; person with ME/CFS, 2010, 600 mg/day for 1.5 months, then 400 mg/day for 1.5 months, then 300 mg/day for three months, self-reported): viral infections became fewer
- intensity of viral infections (pain, headache, fatigue, time bedridden) (viral infections [3]; [5]): intensity was less severe
- recovery time from viral infections (viral infections [3]; [5]): recovery time was quicker
- frequency and severity of viral infections after halting the treatment (viral infections [3]; person with ME/CFS, after halting NBMI in summer 2010, self-reported): viral infections became more frequent and more severe
- severity and duration of virus infection when NBMI is taken during infection (viral infections [3]; person with ME/CFS, occasional NBMI when inflicted with a virus infection, compared with not taking NBMI, patient's impression): less severe and shorter in duration
- occurrence of viral infections (viral infections [4]): no longer suffered from viral infections
